Test results reported in patent US20080261994A1, “CYCLOPROPANE COMPOUNDS AND PHARMACEUTICAL USE THEREOF” (Japan Tobacco Inc., priority 2003, published 2008).
Counter-ions that a name gives are not always drawn. Like-named read-outs stand apart in the source and are kept apart here.

Key:
Format in all cases: biochemical
aggrecanase-1 = target: T1, aggrecanase-1 (Homo sapiens, UniProt O75173); assay: Aggrecanase-1 inhibitory action (Particle Assay, GAG release from aggrecan-containing polyacrylamide particles)
T1 sequence (O75173 213-837): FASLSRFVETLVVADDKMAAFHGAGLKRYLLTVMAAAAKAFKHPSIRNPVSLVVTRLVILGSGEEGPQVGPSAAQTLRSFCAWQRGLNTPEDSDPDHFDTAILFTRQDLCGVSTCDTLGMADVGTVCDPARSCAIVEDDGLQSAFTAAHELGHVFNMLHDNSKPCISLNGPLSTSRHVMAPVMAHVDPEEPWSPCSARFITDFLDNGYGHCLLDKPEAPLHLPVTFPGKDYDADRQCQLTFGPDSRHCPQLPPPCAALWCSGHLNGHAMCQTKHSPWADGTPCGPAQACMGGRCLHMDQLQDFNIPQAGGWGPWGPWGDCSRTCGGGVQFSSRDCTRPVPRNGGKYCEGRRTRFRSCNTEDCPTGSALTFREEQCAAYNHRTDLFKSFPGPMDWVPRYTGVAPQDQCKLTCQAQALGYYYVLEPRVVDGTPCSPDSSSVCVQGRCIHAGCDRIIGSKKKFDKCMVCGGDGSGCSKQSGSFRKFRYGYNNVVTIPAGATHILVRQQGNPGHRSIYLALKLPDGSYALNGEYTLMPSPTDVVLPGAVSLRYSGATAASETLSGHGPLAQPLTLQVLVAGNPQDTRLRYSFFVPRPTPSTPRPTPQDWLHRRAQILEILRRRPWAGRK
Experimental: Particle Assay was used for determination of aggrecanase activity.
(§1) The enzyme and substrate were diluted with Tris-HCl buffer, and test compounds were diluted with dimethyl sulfoxide (DMSO).
Test compounds and the enzyme were added into 96-well plate, and polyacrylamide particles containing aggrecan were added as a substrate and the mixture was incubated at 37° C. for 15 hr.
After incubation, the supernatant was transferred to another plate, and mixed with 1,9-dimethylmethylene blue. The absorbence at 595 nm was measured to quantify the amount of glycosaminoglycan (GAG) released in the reaction supernatant. Whale chondroitin sulfate was used as the standard of GAG. The inhibitory activity of the compound in each well (%) was calculated based on the values of enzyme-free well and inhibitor-free well. The inhibitory activity of the compound was represented as […] (μM).

MMP-1 = target: T2, MMP-1 (Homo sapiens, UniProt P03956); assay: MMP-1 inhibitory action (Type I collagen Activity Measurement kit, FITC-labeled collagen type I)
T2 sequence (P03956 100-469): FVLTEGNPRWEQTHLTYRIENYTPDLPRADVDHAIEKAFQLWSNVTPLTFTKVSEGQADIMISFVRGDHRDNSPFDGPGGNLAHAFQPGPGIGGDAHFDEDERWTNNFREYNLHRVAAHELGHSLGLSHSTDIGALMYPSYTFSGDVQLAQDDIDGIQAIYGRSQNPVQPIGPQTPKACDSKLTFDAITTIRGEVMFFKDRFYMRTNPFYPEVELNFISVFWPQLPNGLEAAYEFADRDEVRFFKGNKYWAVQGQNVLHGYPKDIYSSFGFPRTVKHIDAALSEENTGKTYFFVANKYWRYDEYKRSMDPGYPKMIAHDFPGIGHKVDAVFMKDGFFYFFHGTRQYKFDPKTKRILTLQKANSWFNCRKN
Experimental: For MMP-1 Assay, Type I collagen Activity Measurement kit (YAGAI YU-72013) modified to a 96-well plate format was used.
The principle of the kit is based on the property of collagen that becomes soluble in ethanol after being cleaved by MMP-1.
as §1
The enzyme and test compounds were added into 96-well plate, and fluorescein isothiocianate (FITC)-labeled collagen type I was added as a substrate and the mixture was incubated at 37° C. for 3 hr.
The reaction was terminated by addition of Tris-HCl buffer containing ethanol. After centrifugation, the supernatant containing denatured substrate was transferred to another 96-well plate. The collagenase activity of MMP-1 was determined by measuring FITC fluorescence intensity (excitation wavelength 485 nm, emission wavelength 530 nm) of each well. The inhibitory activity of the compound in each well (%) was calculated based on the values of enzyme-free well and inhibitor-free well. The inhibitory activity of the compound was represented as IC50 (μM).

Recombinant Human MMP-13 = target: T3, Recombinant Human MMP-13 (Homo sapiens, UniProt P45452); assay: MMP-13 inhibitory activity (MMP-13 specific fluorescent substrate with quencher)
T3 construct: purchased R&D systems 511-MM
Experimental: Inhibitory activity of tested compounds on MMP-13 was measured using MMP-13 specific fluorescent substrate with quencher.
as §1
Test compounds and the enzyme (Recombinant Human MMP-13: R&D systems, 511-MM) were added into 96-well plate. The reaction was initiated by adding synthetic substrate (7-MCA-Pro-CHA-Gly-NVal-His-Ala-DPA: enzyme systems products, Met-06) into the plate. After incubation at 25° C. for 1 h, the reaction was terminated by addition of reaction terminating solution containing acetic acid. Fluorescence intensity of each well was measured (Ex: 325 nm, […] 405 nm) and the MMP-13 inhibitory activity of the compound in each well (%) was calculated based on the values of enzyme-free well and inhibitor-free well. The inhibitory activity of the compound was represented as IC50 (μM).

[1] = aggrecanase-1 inhibitory action, read-out: IC50 AG1 (Experimental Example 1)
[2] = MMP-1 inhibitory action, FITC-labeled collagen type I, 37° C. for 3 hr, read-out: IC50 MMP1 (Experimental Example 2)
[3] = Recombinant Human MMP-13, fluorescent substrate, 25° C. for 1 h, read-out: IC50 MMP13 (Experimental Example 3)
[4] = Experimental Example 1, read-out: IC50 AG1
[5] = Experimental Example 2, read-out: IC50 MMP1
[6] = Experimental Example 3, read-out: IC50 MMP13

Row | IC50 (aggrecanase-1; [1]) | IC50 (MMP-1; [2]) | IC50 (Recombinant Human MMP-13; [3]) | IC50 (aggrecanase-1; [4]) | IC50 (MMP-1; [5]) | IC50 (Recombinant Human MMP-13; [6]) | SMILES
1 | < 100 nM | ≥ 1000 nM | < 100 nM |  |  |  | CN(C)c1cccc(C2CC2(NS(=O)(=O)c2ccc(-c3ccc(Cl)cc3)s2)C(=O)O)c1 (stereo not drawn) [Example 1-133]
2 | < 1000 nM | ≥ 1000 nM | < 100 nM |  |  |  | O=C(Nc1cccc(C2CC2(NS(=O)(=O)c2ccc(-c3ccc(Cl)cc3)cc2)C(=O)O)c1)c1ccncc1 (stereo not drawn) [Example 1-63]
3 | < 1000 nM | ≥ 10000 nM | < 1000 nM |  |  |  | O=C(O)C1(NS(=O)(=O)c2ccc(-c3ccc(Cl)cc3)s2)CC1c1ccccc1CN1CCOCC1 (stereo not drawn) [Example 2-91]
4 |  |  |  | < 1000 nM | < 1000 nM | < 100 nM | O=C(NO)C1(NS(=O)(=O)c2ccc(-c3ccc(Cl)cc3)s2)C2Cc3ccccc3C21 (stereo not drawn) [Example 2-447]
5 | ≥ 1000 nM | ≥ 10000 nM | < 1000 nM |  |  |  | CN1CCN(c2ccc(C3CC3(NS(=O)(=O)c3ccc(-c4ccc(Cl)cc4)s3)C(=O)O)cc2)CC1 (stereo not drawn) [Example 2-246]
6 | < 100 nM | ≥ 10000 nM | < 100 nM |  |  |  | O=C(O)C1(NS(=O)(=O)c2ccc(-c3ccc(Cl)cc3)s2)CC1c1cccc(CNc2cccnc2)c1 (stereo not drawn) [Example 2-32]
7 |  |  |  | < 100 nM | < 1000 nM | < 100 nM | CC1[C@H](c2ccccc2)[C@]1(NS(=O)(=O)c1ccc(-c2ccc(Cl)c(F)c2)s1)C(=O)O (stereo partly drawn) [Example 2-435]
8 | < 1000 nM | ≥ 10000 nM | < 1000 nM |  |  |  | CN1CCN(Cc2cccc(C3CC3(NS(=O)(=O)c3ccc(-c4ccc(Cl)cc4)s3)C(=O)O)c2)CC1 (stereo not drawn) [Example 1-103]
9 |  |  |  | < 100 nM | ≥ 10000 nM | ≥ 1000 nM | O=C(O)C1(NS(=O)(=O)c2ccc(-c3ccc(Cl)cc3)s2)CC1(CN1CCOCC1)c1ccccc1 (stereo not drawn) [Example 2-341]
10 | ≥ 10000 nM | ≥ 10000 nM | ≥ 10000 nM |  |  |  | O=C(O)[C@]1(NS(=O)(=O)c2ccc(C3=CCNCC3)s2)C[C@@H]1c1ccccc1 [Example 2-2, (1S,2R)-2-phenyl-1-[5-(1,2,3,6-tetrahydro-pyridin-4-yl)-thiophene-2-sulfonylamino]-cyclopropanecarboxylic acid hydrochloride]
11 | < 100 nM | ≥ 10000 nM | < 100 nM |  |  |  | O=C(O)CCc1cccc(C2CC2(NS(=O)(=O)c2ccc(-c3ccc(Cl)cc3)s2)C(=O)O)c1 (stereo not drawn) [Example 2-180]
12 | < 1000 nM | ≥ 1000 nM | < 100 nM |  |  |  | CN1CCN(C(=O)OCCCc2cccc(C3CC3(NS(=O)(=O)c3ccc(-c4cc(C(F)(F)F)on4)s3)C(=O)O)c2)CC1 (stereo not drawn) [Example 2-238]
13 | < 1000 nM | ≥ 10000 nM | < 1000 nM |  |  |  | O=C(O)C1(NS(=O)(=O)c2ccc(-c3ccc(Cl)cc3)s2)CC1c1ccc(Br)cc1 (stereo not drawn) [Example 2-202]
14 | < 100 nM | ≥ 1000 nM | < 100 nM |  |  |  | COC(=O)Cc1cccc(C2CC2(NS(=O)(=O)c2ccc(-c3ccc(Cl)cc3)s2)C(=O)O)c1 (stereo not drawn) [Example 2-188]
15 | < 100 nM | ≥ 10000 nM | < 1000 nM |  |  |  | COCCN(C)C(=O)c1ccccc1C1CC1(NS(=O)(=O)c1ccc(-c2ccc(Cl)cc2)s1)C(=O)O (stereo not drawn) [Example 2-71]
16 |  |  |  | < 1000 nM | ≥ 10000 nM | < 1000 nM | CC(=O)NCC1(c2ccccc2)CC1(NS(=O)(=O)c1ccc(-c2ccc(Cl)cc2)s1)C(=O)O (stereo not drawn) [Example 2-376]
17 | < 1000 nM | ≥ 1000 nM | < 100 nM |  |  |  | O=C(O)C1(NS(=O)(=O)c2ccc(-c3ccc(Cl)cc3)cc2)CC1c1cccc(OCCO)c1 (stereo not drawn) [Example 1-66]

The remaining lines, values behind:

Row | SMILES | IC50 (aggrecanase-1; [1]) | IC50 (MMP-1; [2]) | IC50 (Recombinant Human MMP-13; [3]) | IC50 (aggrecanase-1; [4]) | IC50 (MMP-1; [5]) | IC50 (Recombinant Human MMP-13; [6])
18 | C[C@]1(c2ccccc2)C[C@@]1(NS(=O)(=O)c1ccc(-c2cc(C(F)(F)F)on2)s1)C(=O)O [Example 2-6, (1S,2R)-2-methyl-2-phenyl-1-[5-(5-trifluoromethyl-isoxazol-3-yl)-thiophene-2-sulfonylamino]-cyclopropanecarboxylic acid] | < 100 nM | ≥ 1000 nM | < 1000 nM |  |  | 
19 | O=C(CCO)NCC1(c2ccccc2)CC1(NS(=O)(=O)c1ccc(-c2ccc(Cl)cc2)s1)C(=O)O (stereo not drawn) [Example 2-395] |  |  |  | < 1000 nM | ≥ 10000 nM | < 1000 nM
20 | CCC1C(c2ccccc2)C1(NS(=O)(=O)c1ccc(-c2cc(C(F)(F)F)on2)s1)C(=O)O (stereo not drawn) [Example 2-299] |  |  |  | < 100 nM | < 100 nM | < 100 nM
21 | O=C(O)C1(NS(=O)(=O)N2CC=C(c3ccccc3)CC2)CC1c1ccccc1 (stereo not drawn) [Example 2-148] | ≥ 1000 nM | ≥ 10000 nM | < 1000 nM |  |  | 
22 | C[C@]1(c2ccccc2)C[C@@]1(NS(=O)(=O)c1ccc(N2CCOCC2)s1)C(=O)O [Example 2-421] |  |  |  | ≥ 1000 nM | ≥ 10000 nM | ≥ 1000 nM
23 | CC1[C@H](c2ccccc2)[C@]1(NS(=O)(=O)N1CCC(OCc2cc(Cl)ccc2Cl)C1)C(=O)O (stereo partly drawn) [Example 2-551] |  |  |  | ≥ 1000 nM | ≥ 1000 nM | ≥ 1000 nM
24 | O=C(O)[C@]1(NS(=O)(=O)c2ccc(C3=NOC(O)(C(F)(F)F)C3)s2)C[C@@H]1c1ccccc1 (stereo partly drawn) [Example 2-35] | < 1000 nM | ≥ 10000 nM | < 1000 nM |  |  | 
25 | O=C(O)C1(NS(=O)(=O)c2ccc(-c3cc(C(F)(F)F)on3)s2)CC1c1cccc(NS(=O)(=O)N2CCOCC2)c1 (stereo not drawn) [Example 2-267] |  |  |  | < 100 nM | ≥ 1000 nM | < 100 nM
26 | C[C@]1(c2ccccc2)C[C@@]1(NS(=O)(=O)c1ccc(-n2cc(CO)cn2)s1)C(=O)O [Example 2-603] |  |  |  | < 1000 nM | < 1000 nM | < 1000 nM
27 | CCCC#Cc1ccc(S(=O)(=O)N[C@@]2(C(=O)O)C[C@@H]2c2ccccc2)s1 [Example 2-133] | ≥ 10000 nM | ≥ 10000 nM | < 1000 nM |  |  | 
28 | O=C(O)COCC1(c2ccccc2)CC1(NS(=O)(=O)c1ccc(-c2ccc(Cl)cc2)s1)C(=O)O (stereo not drawn) [Example 2-405] |  |  |  | < 100 nM | ≥ 10000 nM | < 1000 nM
29 | CC(C)OCCNC(=O)OCC1(c2ccccc2)CC1(NS(=O)(=O)c1ccc(-c2cc(C(F)(F)F)on2)s1)C(=O)O (stereo not drawn) [Example 2-308] |  |  |  | < 1000 nM | ≥ 1000 nM | < 1000 nM
30 | O=C(O)C1(NS(=O)(=O)c2ccc(-c3ccc(Cl)cc3)s2)CC1(CNCc1nccs1)c1ccccc1 (stereo not drawn) [Example 2-393] |  |  |  | < 1000 nM | ≥ 1000 nM | < 100 nM
31 | CC1[C@H](c2ccccc2)[C@]1(NS(=O)(=O)c1ccc(-c2cc(C(N)=O)on2)s1)C(=O)O (stereo partly drawn) [Example 2-578] |  |  |  | < 1000 nM | ≥ 1000 nM | < 100 nM
32 | O=C(Cc1ccc([C@@H]2C[C@]2(NS(=O)(=O)c2ccc(-c3cc(C(F)(F)F)on3)s2)C(=O)O)cc1)N1CCOCC1 [Example 2-291] |  |  |  | < 100 nM | < 1000 nM | < 100 nM
